# Data as given in ChEMBL document CHEMBL1949576, “Praziquantel derivatives exhibit activity against both juvenile and adult Schistosoma japonicum” (2012).
# Key:
# Assay type in all cases: functional
# Schistosoma japonicum [1] = test: Antischistosomal activity against adult Schistosoma japonicum assessed as worm survival at 20 uM after 72 hrs relative to control
# Schistosoma japonicum [2] = test: Antischistosomal activity against adult Schistosoma japonicum assessed as worm survival at 50 uM after 72 hrs relative to control
# Schistosoma japonicum [3] = test: Antischistosomal activity against adult Schistosoma japonicum assessed as worm survival at 15 uM after 72 hrs relative to control
# Schistosoma japonicum [4] = test: Antischistosomal activity against juvenile Schistosoma japonicum assessed as worm survival at 50 uM after 72 hrs relative to control
# Schistosoma japonicum [5] = test: Antischistosomal activity against adult Schistosoma japonicum assessed as worm survival at 15 uM after 48 hrs relative to control
# Schistosoma japonicum [6] = test: Antischistosomal activity against adult Schistosoma japonicum assessed as worm survival at 50 uM after 48 hrs relative to control
# Schistosoma japonicum [7] = test: Antischistosomal activity against juvenile Schistosoma japonicum assessed as worm survival at 25 uM after 48 hrs relative to control
# Schistosoma japonicum [8] = test: Antischistosomal activity against juvenile Schistosoma japonicum assessed as worm survival at 50 uM after 24 hrs relative to control
# Schistosoma japonicum [9] = test: Antischistosomal activity against adult Schistosoma japonicum assessed as worm survival at 20 uM after 48 hrs relative to control
# Schistosoma japonicum [10] = test: Antischistosomal activity against adult Schistosoma japonicum assessed as worm survival at 50 uM after 24 hrs relative to control
# Schistosoma japonicum [11] = test: Antischistosomal activity against adult Schistosoma japonicum assessed as worm survival at 25 uM after 72 hrs relative to control
# Schistosoma japonicum [12] = test: Antischistosomal activity against juvenile Schistosoma japonicum assessed as worm survival at 25 uM after 24 hrs relative to control
# Schistosoma japonicum [13] = test: Antischistosomal activity against adult Schistosoma japonicum assessed as worm survival at 25 uM after 24 hrs relative to control
# Schistosoma japonicum [14] = test: Antischistosomal activity against juvenile Schistosoma japonicum infected in mouse assessed as total worm reduction at 200 mg/kg, po administered 14 days after infection relative to control; set-up: scale not given: the % may be the effect or the level left
# Schistosoma japonicum [15] = test: Antischistosomal activity against adult Schistosoma japonicum assessed as worm survival at 15 uM after 24 hrs relative to control
# Schistosoma japonicum [16] = test: Antischistosomal activity against juvenile Schistosoma japonicum assessed as worm survival at 25 uM after 72 hrs relative to control
# Schistosoma japonicum [17] = test: Antischistosomal activity against adult Schistosoma japonicum infected in mouse assessed as total worm reduction at 200 mg/kg, po administered 21 days after infection relative to control; set-up: scale not given: the % may be the effect or the level left
# Schistosoma japonicum [18] = test: Antischistosomal activity against adult Schistosoma japonicum assessed as worm survival at 20 uM after 24 hrs relative to control
# Schistosoma japonicum [19] = test: Antischistosomal activity against juvenile Schistosoma japonicum assessed as worm survival at 50 uM after 48 hrs relative to control
# Schistosoma japonicum [20] = test: Antischistosomal activity against adult Schistosoma japonicum assessed as worm survival at 25 uM after 48 hrs relative to control
# Schistosoma japonicum [21] = test: Antischistosomal activity against adult Schistosoma japonicum assessed as worm survival at 100 uM after 72 hrs relative to control
# Schistosoma japonicum [22] = test: Antischistosomal activity against adult Schistosoma japonicum assessed as worm survival at 100 uM after 24 hrs relative to control
# Schistosoma japonicum [23] = test: Antischistosomal activity against adult Schistosoma japonicum assessed as worm survival at 100 uM after 48 hrs relative to control
# Schistosoma japonicum [24] = test: Antischistosomal activity against adult Schistosoma japonicum assessed as worm survival at 80 uM after 48 hrs relative to control
# Schistosoma japonicum [25] = test: Antischistosomal activity against adult Schistosoma japonicum assessed as worm survival at 80 uM after 72 hrs relative to control
# Schistosoma japonicum [26] = test: Antischistosomal activity against adult Schistosoma japonicum assessed as worm survival at 80 uM after 24 hrs relative to control
# Schistosoma japonicum [27] = test: Antischistosomal activity against adult Schistosoma japonicum assessed as worm survival at 60 uM after 72 hrs relative to control
# Schistosoma japonicum [28] = test: Antischistosomal activity against adult Schistosoma japonicum assessed as worm survival at 70 uM after 24 hrs relative to control
# Schistosoma japonicum [29] = test: Antischistosomal activity against adult Schistosoma japonicum assessed as worm survival at 60 uM after 48 hrs relative to control
# Schistosoma japonicum [30] = test: Antischistosomal activity against adult Schistosoma japonicum assessed as worm survival at 70 uM after 72 hrs relative to control
# Schistosoma japonicum [31] = test: Antischistosomal activity against adult Schistosoma japonicum assessed as worm survival at 60 uM after 24 hrs relative to control
# Schistosoma japonicum [32] = test: Antischistosomal activity against adult Schistosoma japonicum assessed as worm survival at 70 uM after 48 hrs relative to control
# Schistosoma japonicum [33] = test: Antischistosomal activity against juvenile Schistosoma japonicum assessed as worm survival at 100 uM after 48 hrs relative to control
# Schistosoma japonicum [34] = test: Antischistosomal activity against juvenile Schistosoma japonicum assessed as worm survival at 100 uM after 24 hrs relative to control
# Schistosoma japonicum [35] = test: Antischistosomal activity against juvenile Schistosoma japonicum assessed as worm survival at 100 uM after 72 hrs relative to control
SMILES,survival at 50 µM (Schistosoma japonicum [2]),survival at 50 µM (Schistosoma japonicum [4]),survival at 50 µM (Schistosoma japonicum [6]),survival at 50 µM (Schistosoma japonicum [8]),survival at 50 µM (Schistosoma japonicum [10]),Activity (Schistosoma japonicum [14]),Activity (Schistosoma japonicum [17]),survival at 50 µM (Schistosoma japonicum [19]),survival at 100 µM (Schistosoma japonicum [21]),survival at 100 µM (Schistosoma japonicum [22]),survival at 100 µM (Schistosoma japonicum [23]),survival at 80 µM (Schistosoma japonicum [24]),survival at 80 µM (Schistosoma japonicum [25]),survival at 80 µM (Schistosoma japonicum [26]),other results
O=C(Nc1ccc2c(c1)C1CN(C(=O)C3CCCCC3)CC(=O)N1CC2)C1CCC2(CC1)OOC1(CCCCC1)OO2 (stereo unspecified),0%,0%,0%,33.3%,0%,25.1%,38.7%,0%,,,,,,,survival at 20 µM (Schistosoma japonicum [1]): 100%; survival at 15 µM (Schistosoma japonicum [3]): 100%; survival at 15 µM (Schistosoma japonicum [5]): 100%; survival at 25 µM (Schistosoma japonicum [7]): 33.3%; survival at 20 µM (Schistosoma japonicum [9]): 100%; survival at 25 µM (Schistosoma japonicum [11]): 40%; survival at 25 µM (Schistosoma japonicum [12]): 37.5%; survival at 25 µM (Schistosoma japonicum [13]): 60%; survival at 15 µM (Schistosoma japonicum [15]): 100%; survival at 25 µM (Schistosoma japonicum [16]): 12.5%; survival at 20 µM (Schistosoma japonicum [18]): 100%; survival at 25 µM (Schistosoma japonicum [20]): 0%
O=C(Oc1ccc2c(c1)C1CN(C(=O)C3CCCCC3)CC(=O)N1CC2)C1CCC2(CC1)OOC1(CCCCC1)OO2 (stereo unspecified),80%,14.3%,80%,0%,40%,,,14.3%,0%,80%,20%,80%,40%,80%,
O=C(Nc1ccc2c(c1)C1CN(C(=O)C3CCCCC3)CC(=O)N1CC2)C1CCC2(CC1)OOC1(O2)C2CC3CC(C2)CC1C3 (stereo unspecified),100%,,100%,,100%,,,,,,,,,,
O=C(Oc1ccc2c(c1)C1CN(C(=O)C3CCCCC3)CC(=O)N1CC2)C1CCC2(CC1)OOC1(O2)C2CC3CC(C2)CC1C3 (stereo unspecified),40%,,40%,,40%,,,,,,,0%,0%,0%,survival at 60 µM (Schistosoma japonicum [27]): 40%; survival at 70 µM (Schistosoma japonicum [28]): 20%; survival at 60 µM (Schistosoma japonicum [29]): 40%; survival at 70 µM (Schistosoma japonicum [30]): 20%; survival at 60 µM (Schistosoma japonicum [31]): 40%; survival at 70 µM (Schistosoma japonicum [32]): 40%
O=C(C1CCCCC1)N1CC(=O)N2CCc3ccccc3C2C1 (stereo unspecified) [PRAZIQUANTEL],36.3%,,44.4%,,62.9%,19.8%,66.7%,,1.4%,10%,4.4%,19.1%,10%,28.8%,survival at 100 µM (Schistosoma japonicum [33]): 100%; survival at 100 µM (Schistosoma japonicum [34]): 100%; survival at 100 µM (Schistosoma japonicum [35]): 100%
